PubChem BioAssay (NCI)
Values joined by “and” are separate entries in the source; they are usually repeats but may differ in a detail not shown here. Identical values can stand only once.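 Tested at 5 concentrations; 48 h exposure; 96-well plates; endpoints linearly interpolated, else capped at highest concentration. GI50 = concentration required for 50% inhibition of growth. At the TGI there is no net growth.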 *1 amine or outer side, *2 acyl side, *3 side chain or, on linkers, in order; H or OH if unused. Where a SMILES comes first, the peptide text is derived from it. Bridges are numbered along the chain shown (N, C = ends). Roman numbers before positions name the chains, in order. [ ]: non-standard residue; d: D form. Actinocin(9to1) = Cc1c2oc3c(C)ccc(C(=O)[*:1])c3nc-2c(C(=O)[*:2])c(N)c1=O; NMeV = CN[CH](C(=O)O)C(C)C; Sar = CNCC(=O)O

How the values were obtained:
Test in all cases: NCI tumour cell line growth inhibition, 48 h
HOP-62 NSCLC = test system: HOP-62 NSCLC
MDA-MB-231 breast = test system: MDA-MB-231 breast
HCT-15 colon = test system: HCT-15 colon
OVCAR-8 ovarian = test system: OVCAR-8 ovarian
U251 CNS = test system: U251 CNS
TK-10 renal = test system: TK-10 renal
M14 melanoma = test system: M14 melanoma
CAKI-1 renal = test system: CAKI-1 renal
UACC-62 melanoma = test system: UACC-62 melanoma

## O=C(c1ccccc1)c1ccc2nc(-c3c(Cl)c(Cl)c(Cl)c(Cl)c3-c3nnc(-c4ccccc4)o3)[nH]c2c1
HOP-62 NSCLC
  TGI: > 100 µM
MDA-MB-231 breast
  TGI: > 100 µM
HCT-15 colon
  TGI: > 100 µM
OVCAR-8 ovarian
  TGI: > 100 µM
U251 CNS
  TGI: > 100 µM
TK-10 renal
  TGI: > 100 µM
M14 melanoma
  TGI: > 100 µM
CAKI-1 renal
  TGI: > 100 µM

## COc1ccc(C#Cn2nnc3ccccc32)cc1
HOP-62 NSCLC
  TGI: > 100 µM
UACC-62 melanoma
  TGI: > 100 µM
MDA-MB-231 breast
  TGI: > 100 µM
HCT-15 colon
  TGI: > 100 µM
OVCAR-8 ovarian
  TGI: > 100 µM
U251 CNS
  TGI: > 100 µM
TK-10 renal
  TGI: > 100 µM
M14 melanoma
  TGI: > 100 µM
CAKI-1 renal
  TGI: > 100 µM

## Cc1c(CNc2ccc(C(=O)NC(CCCNC(=O)c3ccccc3C(=O)O)C(=O)O)cc2)cnc2nc(N)nc(N)c12 (stereo not given)
MDA-MB-231 breast
  GI50: > 100 µM
  TGI: > 100 µM
HCT-15 colon
  TGI: > 100 µM
U251 CNS
  GI50: 0.00285 µM
  TGI: > 100 µM
TK-10 renal
  GI50: > 100 µM
M14 melanoma
  GI50: 0.0385 µM

## Cc1cccc2c(N)c3cccc(C(=O)NCC[N+](C)(C)Cc4ccc([N+](=O)[O-])s4)c3nc12
HOP-62 NSCLC
  TGI: 32.5 µM
UACC-62 melanoma
  TGI: > 49.1 µM
MDA-MB-231 breast
  TGI: 21.3 µM
HCT-15 colon
  TGI: > 100 µM
OVCAR-8 ovarian
  TGI: 42.9 µM
U251 CNS
  TGI: > 100 µM
TK-10 renal
  TGI: > 100 µM
M14 melanoma
  TGI: 39.7 µM
CAKI-1 renal
  TGI: > 73.8 µM

## Clc1sc(Cl)c2c1[C@@H](Cl)C[C@@H]2Cl
HOP-62 NSCLC
  TGI: > 100 µM
UACC-62 melanoma
  TGI: > 100 µM
MDA-MB-231 breast
  TGI: > 100 µM
HCT-15 colon
  TGI: > 100 µM
OVCAR-8 ovarian
  TGI: > 100 µM
U251 CNS
  TGI: > 100 µM
TK-10 renal
  TGI: > 100 µM
M14 melanoma
  TGI: > 100 µM
CAKI-1 renal
  TGI: > 100 µM

## CC(=O)n1cc(C2CC23N=C(c2ccccc2)OC3=O)c2ccccc21 (stereo not given)
HOP-62 NSCLC
  TGI: > 100 µM
UACC-62 melanoma
  TGI: 31.7 µM
MDA-MB-231 breast
  TGI: 46.4 µM
HCT-15 colon
  TGI: 58.9 µM
OVCAR-8 ovarian
  TGI: 35.3 µM
U251 CNS
  TGI: 36.8 µM
TK-10 renal
  TGI: 53.8 µM
M14 melanoma
  TGI: 34.9 µM
CAKI-1 renal
  TGI: 36 µM

## Cc1c2oc3c(C)ccc(C(=O)NC4C(=O)NC(Cc5ccccc5)C(=O)N5CCCC5C(=O)N(C)CC(=O)N(C)C(C(C)C)C(=O)OC4C)c3nc-2c(C(=O)NC2C(=O)NC(Cc3ccccc3)C(=O)N3CCCC3C(=O)N(C)CC(=O)N(C)C(C(C)C)C(=O)OC2C)c(N)c1=O (stereo not given) (I: TFP[Sar][NMeV] / II: TFP[Sar][NMeV]; ester I:1-I:C, II:1-II:C; linker I:N-II:N via Actinocin(9to1); configuration not given here)
HOP-62 NSCLC
  TGI: 0.102 µM
UACC-62 melanoma
  TGI: 0.00232 µM
MDA-MB-231 breast
  TGI: 0.255 µM
HCT-15 colon
  GI50: 0.017 µM
OVCAR-8 ovarian
  TGI: 1.53 µM
U251 CNS
  TGI: 1.06 µM and 1.26 µM
TK-10 renal
  GI50: 0.0102 µM
  TGI: 1.65 µM and 5.66 µM
M14 melanoma
  GI50: < 0.001 µM
  TGI: 0.0399 µM and 0.0936 µM
CAKI-1 renal
  TGI: 0.21 µM

## Cn1cccc1-c1ccc(-c2ccc(CO)[se]2)[se]1
HOP-62 NSCLC
  TGI: > 88.1 µM
UACC-62 melanoma
  TGI: > 100 µM
MDA-MB-231 breast
  TGI: > 79.8 µM
HCT-15 colon
  TGI: > 100 µM
OVCAR-8 ovarian
  TGI: > 100 µM
U251 CNS
  TGI: > 100 µM
TK-10 renal
  TGI: > 100 µM
M14 melanoma
  TGI: > 100 µM
CAKI-1 renal
  TGI: 44.5 µM

## CC(=O)O[C@H]1CC[C@@]2(C)C(=CC[C@@H]3[C@@H]2CC[C@]2(C)C(=N/O)/C(=C\c4ccccc4)C[C@@H]32)C1
HOP-62 NSCLC
  TGI: 71.6 µM
UACC-62 melanoma
  TGI: 31.9 µM
MDA-MB-231 breast
  TGI: 73.2 µM
HCT-15 colon
  TGI: > 100 µM
OVCAR-8 ovarian
  TGI: > 100 µM
U251 CNS
  TGI: > 81.5 µM
TK-10 renal
  TGI: 78.8 µM
M14 melanoma
  TGI: 39.3 µM
CAKI-1 renal
  TGI: > 100 µM

## CCC1(O)CC(OC2CC(N(C)C)C(OC3CC(O)C(OC4OC(C)C(=O)C=C4N)C(C)O3)C(C)O2)c2c(cc3c(c2O)C(=O)c2c(O)cccc2C3=O)C1C(=O)OC (stereo not given)
HOP-62 NSCLC
  TGI: 1.14 µM and 0.344 µM
UACC-62 melanoma
  TGI: 0.17 µM and 0.0324 µM
MDA-MB-231 breast
  GI50: 0.0369 µM
  TGI: 2.03 µM and 2.09 µM
HCT-15 colon
  GI50: 0.471 µM
  TGI: 1.66 µM and 11.8 µM
OVCAR-8 ovarian
  TGI: 1.59 µM and 1.32 µM
U251 CNS
  TGI: 1.5 µM and 1.55 µM
TK-10 renal
  GI50: 0.0398 µM
  TGI: 1.1 µM and 2.31 µM
M14 melanoma
  TGI: 0.656 µM
CAKI-1 renal
  TGI: 0.308 µM and 0.0365 µM

## C/C=C(\C)C(=O)OC1CC(OC(C)=O)C2(C(=O)OC)COC3C2C1(C)C1C2(C(=O)OC)OCC1(C3O)C1(O)C3CC(C4(O)C=COC4O3)C1(C)O2 (stereo not given)
HOP-62 NSCLC
  TGI: > 100 µM
UACC-62 melanoma
  TGI: > 100 µM
MDA-MB-231 breast
  TGI: > 100 µM
HCT-15 colon
  TGI: > 100 µM
OVCAR-8 ovarian
  TGI: > 100 µM
U251 CNS
  TGI: > 100 µM
TK-10 renal
  TGI: > 100 µM
M14 melanoma
  TGI: > 100 µM
CAKI-1 renal
  TGI: > 100 µM

## Cc1cc(S(=O)(=O)Nc2nc3ncccc3[nH]2)c(S)cc1Cl
HOP-62 NSCLC
  TGI: > 100 µM
UACC-62 melanoma
  TGI: > 100 µM
MDA-MB-231 breast
  TGI: > 100 µM
HCT-15 colon
  TGI: > 100 µM
OVCAR-8 ovarian
  TGI: > 100 µM
U251 CNS
  TGI: > 100 µM
TK-10 renal
  TGI: > 100 µM
M14 melanoma
  TGI: > 100 µM
CAKI-1 renal
  TGI: > 100 µM

## NS(=O)(=O)c1nc(S(=O)(=O)O)c2[nH]cnc2n1
HOP-62 NSCLC
  TGI: > 100 µM
UACC-62 melanoma
  TGI: > 100 µM
MDA-MB-231 breast
  TGI: > 100 µM
HCT-15 colon
  TGI: > 100 µM
OVCAR-8 ovarian
  TGI: > 100 µM
U251 CNS
  TGI: > 100 µM
TK-10 renal
  TGI: > 100 µM
M14 melanoma
  TGI: > 100 µM
CAKI-1 renal
  TGI: > 100 µM

## COc1cc2cc(C(=O)N3CC(COS(C)(=O)=O)c4ccc(NC(=O)OCc5ccccc5)cc43)[nH]c2c(OC)c1OC (stereo not given)
HOP-62 NSCLC
  TGI: > 100 µM
UACC-62 melanoma
  TGI: > 100 µM
MDA-MB-231 breast
  TGI: > 100 µM
HCT-15 colon
  TGI: > 100 µM
OVCAR-8 ovarian
  TGI: > 100 µM
U251 CNS
  TGI: > 100 µM
TK-10 renal
  TGI: > 100 µM
M14 melanoma
  TGI: > 100 µM
CAKI-1 renal
  TGI: > 100 µM

## C(/C=N/NC1=NCCCCN1)=N\NC1=NCCCCN1
HOP-62 NSCLC
  TGI: > 100 µM
UACC-62 melanoma
  TGI: > 100 µM
MDA-MB-231 breast
  TGI: > 100 µM
OVCAR-8 ovarian
  TGI: > 100 µM
U251 CNS
  TGI: > 100 µM
TK-10 renal
  TGI: > 100 µM
M14 melanoma
  TGI: > 100 µM
CAKI-1 renal
  TGI: > 100 µM

## O=c1c2cc(C(F)(F)F)ccc2sc2c(NCCCNCCO)nc3ccccc3c12
UACC-62 melanoma
  GI50: 1.78 µM
  TGI: 3.25 µM
MDA-MB-231 breast
  GI50: 1.28 µM
  TGI: 2.63 µM
HCT-15 colon
  GI50: 1.32 µM
  TGI: 2.77 µM
CAKI-1 renal
  GI50: 1.48 µM
  TGI: 2.81 µM

## Cc1cc(-n2nnc(C(=O)O)c2-c2ccccc2)c2ccc(Cl)cc2n1
UACC-62 melanoma
  TGI: > 100 µM
MDA-MB-231 breast
  TGI: > 100 µM
HCT-15 colon
  TGI: > 100 µM
OVCAR-8 ovarian
  TGI: > 100 µM
U251 CNS
  TGI: > 100 µM
TK-10 renal
  TGI: > 100 µM
M14 melanoma
  TGI: > 100 µM
CAKI-1 renal
  TGI: > 100 µM

## CN1CCN(Cc2c[nH]c3c2C(=O)c2c(c(O)c4ccccc4c2O)C3=O)CC1
UACC-62 melanoma
  GI50: 16.5 µM
  TGI: 31.6 µM
MDA-MB-231 breast
  GI50: 7.19 µM
  TGI: 19.9 µM
HCT-15 colon
  GI50: 3.46 µM
  TGI: 15.6 µM
OVCAR-8 ovarian
  GI50: 6.34 µM
  TGI: 26 µM
U251 CNS
  GI50: 11.1 µM
  TGI: 27.9 µM
TK-10 renal
  GI50: 1.46 µM
  TGI: 14.9 µM
M14 melanoma
  GI50: 1.79 µM
  TGI: 5.12 µM
CAKI-1 renal
  GI50: 3.16 µM
  TGI: 18.8 µM

## CNc1nnc(CCCCCCCCc2nnc(NC)o2)o1
HOP-62 NSCLC
  TGI: 78 µM
MDA-MB-231 breast
  TGI: > 100 µM
HCT-15 colon
  TGI: > 100 µM
OVCAR-8 ovarian
  TGI: > 100 µM
U251 CNS
  TGI: 63.7 µM
TK-10 renal
  TGI: > 100 µM
M14 melanoma
  TGI: > 100 µM
CAKI-1 renal
  TGI: 31.3 µM

## C=C(C(=O)O[C@H]1C/C(C)=C/CC/C(CO)=C/[C@H]2C(=O)OC(=C)[C@H]12)C(O)CO (stereo not given in full)
HOP-62 NSCLC
  TGI: > 59.9 µM
UACC-62 melanoma
  TGI: 31.5 µM
MDA-MB-231 breast
  TGI: 33.3 µM
HCT-15 colon
  TGI: 24.4 µM
OVCAR-8 ovarian
  TGI: 40.1 µM
U251 CNS
  TGI: 27.1 µM
TK-10 renal
  TGI: 20.3 µM
M14 melanoma
  TGI: 28.5 µM
CAKI-1 renal
  TGI: 9.1 µM
